In ChEMBL document CHEMBL1201862, “PubChem BioAssay data set” (2004):
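Grown in 96-well plates, cells were treated for 48 hours with each compound at five concentrations. Insufficient inhibition: endpoint recorded as highest concentration tested. GI50 is the concentration that inhibits growth by half.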 Calls of active or inactive are those of the source. No stated cut-off is given here; in the data, active = GI50 up to about 1.1 µM and inactive = higher.

Experiments:
Test in all cases: growth of human tumour cells (NCI), 48 h
[1] = tested on: A498
[2] = tested on: ACHN
[3] = tested on: CAKI-1
[4] = tested on: COLO 205
[5] = tested on: HCT-15
[6] = tested on: Hs-578T
[7] = tested on: IGROV-1
[8] = tested on: KM12
[9] = tested on: MDA-MB-435
[10] = tested on: OVCAR-3
[11] = tested on: OVCAR-4
[12] = tested on: OVCAR-8
[13] = tested on: RPMI-8226
[14] = tested on: SK-MEL-28
[15] = tested on: SK-MEL-2
[16] = tested on: SNB-75
[17] = tested on: TK-10
[18] = tested on: U-251
[19] = tested on: UACC-62
[20] = tested on: MOLT-4

| Compound | GI50 [1] | GI50 [2] | GI50 [3] | GI50 [4] | GI50 [5] [µM] | GI50 [6] | GI50 [7] | GI50 [8] | GI50 [9] | GI50 [10] | GI50 [11] | GI50 [12] | GI50 [13] | GI50 [14] | GI50 [15] | GI50 [16] | GI50 [17] | GI50 [18] | GI50 [19] | GI50 [20] |
| --- | --- | --- | --- | --- | --- | --- | --- | --- | --- | --- | --- | --- | --- | --- | --- | --- | --- | --- | --- | --- |
| OC(Cc1cccnc1)(c1ccccc1)c1ccccc1 | > 100 µM (inactive) | > 100 µM (inactive) | > 100 µM (inactive) | > 100 µM (inactive) | > 100 | > 100 µM (inactive) | > 100 µM (inactive) | 59.7 µM (inactive) | 47 µM (inactive) | > 100 µM (inactive) | > 100 µM (inactive) | > 100 µM (inactive) | 42.9 µM (inactive) | > 100 µM (inactive) | > 100 µM (inactive) | > 100 µM (inactive) | > 100 µM (inactive) | > 100 µM (inactive) | 91.6 µM (inactive) |  |
| Cn1cc(C2NC(=O)c3ccccc3N2)c2ccccc21 (stereo not drawn) | 0.206 µM (active) | 1.75 µM (inactive) |  | 0.925 µM (active) | 0.191 | 0.649 µM (active) | 1.51 µM (inactive) | 0.0612 µM (active) | 0.0785 µM (active) | 0.489 µM (active) | 0.306 µM (active) |  | 0.249 µM (active) | 0.643 µM (active) | 2.02 µM (inactive) | 0.873 µM (active) | 2.94 µM (inactive) | 0.889 µM (active) | 0.373 µM (active) | 0.255 µM (active) |
| O=c1[nH]c(=O)n(CCOCP(=O)(O)O)nc1Br | > 100 µM (inactive) | > 100 µM (inactive) | > 100 µM (inactive) | > 100 µM (inactive) | > 100 | > 100 µM (inactive) | > 100 µM (inactive) | > 100 µM (inactive) | > 100 µM (inactive) | > 100 µM (inactive) |  | > 100 µM (inactive) | > 100 µM (inactive) | > 100 µM (inactive) | > 100 µM (inactive) | > 100 µM (inactive) | > 100 µM (inactive) | > 100 µM (inactive) |  | > 100 µM (inactive) |
| CN(C)/C=N/c1c2c(nc3ccccc13)CCCC2 | 49.9 µM (inactive) | > 100 µM (inactive) | > 100 µM (inactive) | 70.8 µM (inactive) | > 100 | > 100 µM (inactive) | > 100 µM (inactive) |  | > 100 µM (inactive) | 38.6 µM (inactive) | 75.2 µM (inactive) | 50.1 µM (inactive) | 53.3 µM (inactive) | 44.2 µM (inactive) | > 100 µM (inactive) | 93.8 µM (inactive) | > 100 µM (inactive) | > 100 µM (inactive) | > 100 µM (inactive) | 59.8 µM (inactive) |
| C=CCNC1=C2C[C@@H](C)C[C@@H](OC)[C@H](OC(=O)CCCCN)[C@H](C)/C=C(\C)[C@@H](OC(N)=O)[C@H](OC)/C=C\C=C(/C)C(=O)NC(=CC1=O)C2=O | 12.9 µM (inactive) | 19.5 µM (inactive) | 18.5 µM (inactive) | 5.22 µM (inactive) | 18.7 | 25.6 µM (inactive) | 13.6 µM (inactive) | 4.97 µM (inactive) | 12.8 µM (inactive) | 3.22 µM (inactive) | 15.8 µM (inactive) | 19.4 µM (inactive) | 9.04 µM (inactive) | 18.5 µM (inactive) | 3.72 µM (inactive) | 5.51 µM (inactive) | 15 µM (inactive) | 10.9 µM (inactive) | 14.6 µM (inactive) | 9.14 µM (inactive) |
| CCOC(=O)NC(Nc1ccc(OC(F)(F)F)cc1)(C(F)(F)F)C(F)(F)F | > 100 µM (inactive) | > 100 µM (inactive) | > 100 µM (inactive) | > 100 µM (inactive) | > 100 | > 100 µM (inactive) | > 100 µM (inactive) | > 100 µM (inactive) | > 100 µM (inactive) | > 100 µM (inactive) |  | > 100 µM (inactive) | > 100 µM (inactive) | > 100 µM (inactive) | > 100 µM (inactive) | > 100 µM (inactive) | > 100 µM (inactive) | > 100 µM (inactive) | > 100 µM (inactive) | > 100 µM (inactive) |
| N#Cc1c(N)n(-c2nc3ccccc3s2)c(=O)c2cc([N+](=O)[O-])ccc12 | 17.1 µM (inactive) | 20.3 µM (inactive) | 20.9 µM (inactive) |  | 4.04 | 9.16 µM (inactive) |  | 19.7 µM (inactive) | 25 µM (inactive) | 14.8 µM (inactive) | 24.3 µM (inactive) | 16.8 µM (inactive) | 10.8 µM (inactive) | 26.7 µM (inactive) | 15.4 µM (inactive) | 14.9 µM (inactive) | 23.6 µM (inactive) | 19.9 µM (inactive) | 21.3 µM (inactive) | 5.46 µM (inactive) |
| CCCCn1c(C)c2c(c1C)C(=O)N(CCN1CCN(c3ccccc3Cl)CC1)C2=O | 39 µM (inactive) | 38.1 µM (inactive) | 69.3 µM (inactive) | 35 µM (inactive) | 35.6 | > 100 µM (inactive) | 30.9 µM (inactive) | 31.5 µM (inactive) | 32.4 µM (inactive) | 50.7 µM (inactive) | 51.2 µM (inactive) | 44.9 µM (inactive) | 24.7 µM (inactive) |  | 20 µM (inactive) | 31.6 µM (inactive) | 43.5 µM (inactive) | 36.5 µM (inactive) | 32.4 µM (inactive) | 22 µM (inactive) |
| CC(=O)Nc1ncc2c(n1)-c1ccccc1OC2c1ccccc1 (stereo not drawn) | 20.7 µM (inactive) | 11 µM (inactive) | 26.1 µM (inactive) | > 100 µM (inactive) | > 100 | 6.89 µM (inactive) | 46.5 µM (inactive) | > 100 µM (inactive) | > 100 µM (inactive) | > 100 µM (inactive) | 18.5 µM (inactive) | 23.6 µM (inactive) | > 100 µM (inactive) |  | 71.8 µM (inactive) | 14.1 µM (inactive) | 28.7 µM (inactive) | 33.1 µM (inactive) | 14.1 µM (inactive) | > 100 µM (inactive) |
| O=C(O)c1ccc(NC(NC(=O)C(C(F)(F)F)C(F)(F)F)(C(F)(F)F)C(F)(F)F)cc1 | > 100 µM (inactive) | > 100 µM (inactive) | > 100 µM (inactive) | > 100 µM (inactive) | > 100 | > 100 µM (inactive) | > 100 µM (inactive) |  | > 100 µM (inactive) |  |  | > 100 µM (inactive) | > 100 µM (inactive) | > 100 µM (inactive) | > 100 µM (inactive) | > 100 µM (inactive) | > 100 µM (inactive) | > 100 µM (inactive) |  | > 100 µM (inactive) |
| CCCCCCCCCCCCCCCCOCC(Cl)COP(=O)(O)OP(=O)(O)OCC1OC(n2cc(C)c(=O)[nH]c2=O)CC1O (stereo not drawn) | > 100 µM (inactive) | > 100 µM (inactive) | > 100 µM (inactive) | > 100 µM (inactive) | > 100 | 31.4 µM (inactive) | 55.2 µM (inactive) | 95.7 µM (inactive) | 57.1 µM (inactive) | > 100 µM (inactive) | > 100 µM (inactive) | 75.9 µM (inactive) | > 100 µM (inactive) | 55.2 µM (inactive) | > 100 µM (inactive) | 26.7 µM (inactive) | > 100 µM (inactive) | > 100 µM (inactive) |  | > 100 µM (inactive) |
| CSc1ccc2c(cc1=O)[C@@H](NC(=O)c1ccc([N+](=O)[O-])cc1)CCc1cc(O)c(O)c(O)c1-2 | > 100 µM (inactive) | 29.7 µM (inactive) | 21.6 µM (inactive) | 24.7 µM (inactive) | 30.4 | 21.2 µM (inactive) | 35.4 µM (inactive) | 17.7 µM (inactive) | 16.6 µM (inactive) | 15.7 µM (inactive) | 39.8 µM (inactive) | 32.1 µM (inactive) | 40.3 µM (inactive) | > 100 µM (inactive) | > 100 µM (inactive) | > 100 µM (inactive) | > 100 µM (inactive) | 34.2 µM (inactive) | 53.3 µM (inactive) | 30.6 µM (inactive) |
| [O-][Cl+3]([O-])([O-])[O-].[O-][Cl+3]([O-])([O-])[O-].c1ccn2c(N3CCCC3)[n+]3c4ccccc4n4c(N5CCCC5)[n+]5ccccc5c4c3c2c1 | > 100 µM (inactive) | > 100 µM (inactive) | > 100 µM (inactive) | 20 µM (inactive) | > 100 | 33.4 µM (inactive) | 42.7 µM (inactive) | 40.3 µM (inactive) | > 100 µM (inactive) | 87.5 µM (inactive) | > 100 µM (inactive) | 25.4 µM (inactive) | 98.6 µM (inactive) | > 100 µM (inactive) | 39.2 µM (inactive) | 18.7 µM (inactive) | > 100 µM (inactive) | 28.2 µM (inactive) | 41.8 µM (inactive) | > 100 µM (inactive) |
| C=CCOc1cccc(C2(O)c3ccccc3C3=NCCCN32)c1 (stereo not drawn) | 21.8 µM (inactive) | 3.63 µM (inactive) | 34.7 µM (inactive) | 15 µM (inactive) | 20.6 | 28.6 µM (inactive) | 8.38 µM (inactive) | 7.48 µM (inactive) | 13 µM (inactive) | 1.25 µM (inactive) | 15.5 µM (inactive) | 14.4 µM (inactive) | 15.2 µM (inactive) | 5.51 µM (inactive) | 1.72 µM (inactive) | 5.06 µM (inactive) | 33.3 µM (inactive) | 15.6 µM (inactive) | 16.1 µM (inactive) | 10.2 µM (inactive) |
| c1ccc2c3c(c(N4CCNCC4)nc2c1)CCCC3 | 14.5 µM (inactive) | 14.5 µM (inactive) | 9.25 µM (inactive) | 5.75 µM (inactive) | 15.8 | 27.7 µM (inactive) | 12.4 µM (inactive) | 17.2 µM (inactive) | 11.4 µM (inactive) | 15.5 µM (inactive) | 16 µM (inactive) | 15.5 µM (inactive) |  | 16.1 µM (inactive) | 12.6 µM (inactive) | 13.9 µM (inactive) | 13.7 µM (inactive) | 13.4 µM (inactive) | 16.7 µM (inactive) | 16.1 µM (inactive) |
